According to paper PMC3136713, “Health-Beneficial Phenolic Aldehyde in Antigonon leptopus Tea” (Evidence-based Complementary and Alternative Medicine : eCAM, 2010):

What was measured:
COX-1 [1] = target: T1, COX-1 (Ovis aries, UniProt P05979); assay: O2 uptake cyclooxygenase assay, single concentration; format: biochemical; conditions: for inhibition at 100 µg/mL: read-out: % inhibition at 100 μg/mL
T1 construct: gene PTGS1
T1 sequence (P05979 25-600): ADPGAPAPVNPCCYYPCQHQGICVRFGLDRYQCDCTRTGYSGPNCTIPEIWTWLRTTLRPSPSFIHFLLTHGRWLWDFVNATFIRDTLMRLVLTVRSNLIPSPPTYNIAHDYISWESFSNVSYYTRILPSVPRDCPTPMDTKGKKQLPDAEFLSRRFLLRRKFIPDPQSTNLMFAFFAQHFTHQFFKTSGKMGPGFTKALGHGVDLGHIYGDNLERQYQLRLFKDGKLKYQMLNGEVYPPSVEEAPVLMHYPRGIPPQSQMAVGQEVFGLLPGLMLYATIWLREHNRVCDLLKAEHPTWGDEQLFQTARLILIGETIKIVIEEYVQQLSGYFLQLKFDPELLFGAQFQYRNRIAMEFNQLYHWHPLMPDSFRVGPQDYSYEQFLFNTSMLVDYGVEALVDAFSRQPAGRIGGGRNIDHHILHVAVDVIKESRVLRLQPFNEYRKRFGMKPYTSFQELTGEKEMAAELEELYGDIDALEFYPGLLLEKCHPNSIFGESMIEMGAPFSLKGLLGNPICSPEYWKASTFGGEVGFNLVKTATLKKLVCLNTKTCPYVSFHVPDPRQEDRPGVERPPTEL

COX-1 [2] = target: T1, COX-1; assay: O2 uptake cyclooxygenase assay, ram seminal vesicle COX-1; […] inhibition at […]; format: biochemical
COX-2 [3] = target: T2, COX-2 (Homo sapiens, UniProt P35354); assay: biochemical; conditions: read-out: % inhibition at 32 nM
T2 construct: gene PTGS2
T2 sequence (P35354 18-604): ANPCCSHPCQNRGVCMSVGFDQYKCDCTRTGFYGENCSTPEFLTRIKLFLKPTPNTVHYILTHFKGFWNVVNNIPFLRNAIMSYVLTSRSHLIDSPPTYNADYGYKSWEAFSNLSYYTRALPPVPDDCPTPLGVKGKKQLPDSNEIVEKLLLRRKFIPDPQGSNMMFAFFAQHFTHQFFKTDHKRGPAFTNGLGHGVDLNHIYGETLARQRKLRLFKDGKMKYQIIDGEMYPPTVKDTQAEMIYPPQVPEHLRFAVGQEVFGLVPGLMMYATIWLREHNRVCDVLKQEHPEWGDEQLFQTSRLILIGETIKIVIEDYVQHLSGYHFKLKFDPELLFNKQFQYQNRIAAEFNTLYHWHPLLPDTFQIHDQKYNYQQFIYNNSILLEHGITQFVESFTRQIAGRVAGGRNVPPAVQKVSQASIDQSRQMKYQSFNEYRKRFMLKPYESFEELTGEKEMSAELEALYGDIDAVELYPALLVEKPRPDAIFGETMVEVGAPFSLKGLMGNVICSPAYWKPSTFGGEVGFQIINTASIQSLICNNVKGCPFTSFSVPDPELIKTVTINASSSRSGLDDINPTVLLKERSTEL

COX-2 [4] = target: T2, COX-2; assay: O2 uptake cyclooxygenase assay, single concentration; format: biochemical; conditions: read-out: % inhibition at 100 μg/mL

| SMILES | inhibition at 100 µg/mL (COX-1 [1]) | other results |
| --- | --- | --- |
| O=Cc1c(O)cc(O)cc1O [compound 11, 2,4,6-trihydroxy benzaldehyde] | – | % inhibition at 100 μg/mL (COX-1 [1]): 86 |
| O=Cc1cc(O)cc(O)c1 [compound 9, 3,5-dihydroxy benzaldehyde] | 82% | – |
| CC(=O)Oc1ccccc1C(=O)O [Aspirin] | – | % inhibition at 60 μM (COX-1 [2]): 69 |
| CS(=O)(=O)c1ccc(C2=C(c3ccccc3)C(=O)OC2)cc1 [Vioxx] | – | inhibition at 0.032 µM (COX-2 [3]): 91% |
| O=Cc1cccc(O)c1O [compound 5, 2,3-dihydroxy benzaldehyde] | 68% | – |
| COc1ccccc1C=O [compound 14, Compound 14] | 83% | – |
| O=Cc1cc(O)ccc1O [compound 7, 2,5-dihydroxy benzaldehyde] | – | inhibition at 100 µg/mL (COX-2 [4]): 61% |
| COc1cc(C=O)cc(OC)c1 [compound 21, Compound 21] | 85% | – |
